Measured values published in PMC9692552, “Activity and Synergy of Cu-ATCUN Antimicrobial Peptides” (International Journal of Molecular Sciences, 2022).
Like-named read-outs stand apart in the source and are kept apart here. Ends that are not written are not given here.

Tests used:
[1] = in SDS, as previously reported, cited from earlier work
Excerpt: Table 1 SMAP-29 derivatives used in this study and others with sequences and defining characteristics. ^a Estimated charge calculated from Innovagen’s peptide property calculator. ^b The helical activity of peptides as previously reported in the referenced manuscripts. ND: not determined. | column: % Helical (SDS) ^b

A. baumannii BAA747 [2] = conditions: cited from earlier work
Excerpt: (§1) Table 2 MIC Values (µM) for SMAP-29 Derivatives. * Previously reported data from reference r comparison. | column: OV3 *; Cu-1 *; Cu-2 *; Cu-3 *; Cu-4 * || Table 4 MIC values for antimicrobial peptides utilized in this study. MIC values for a variety of the presented peptides have been previously determined in alternative conditions; values here are the result of experimental efforts to determine MICs under the conditions utilized for further study of FIC potential, with the exception of Sub5 and Sub5-01, previously characterized in our laboratory, w | column: Sub5; Sub5-01

E. coli 25922 [3] = conditions: cited from earlier work
Excerpt: as §1

P. aeruginosa 27583 = conditions: cited from earlier work
Excerpt: as §1

K. pneumoniae 700603 = conditions: cited from earlier work
Excerpt: as §1

E. faecium 700221 (VRE) = conditions: cited from earlier work
Excerpt: as §1

S. aureus 43300 (MRSA) = conditions: cited from earlier work
Excerpt: as §1

E. coli 25922 [4] = conditions: single peptide on the FIC plate, cited from earlier work
Excerpt: Figure 6 Summary of peptide interactions in E. coli 25922 from data presented in Results and Supplemental Material. Synergistic (or non-synergistic) interactions for CP10A, TempL, OV3-00 and OV3-01 with other peptides are grouped as shown. Parental and ATCUN derivatives are outlined in the same shape with the average FIC value shown in parentheses. TEXT PRINTED IN THE PICTURE: Sub5: E. coli 25922, CP10A, Synergistic: (0.4); E. coli 25922, TempL, Additive/Indifferent: (1) | Sub5-01: E. coli 25922, CP10A, Synergistic: (0.42); E. coli 25922, TempL, Additive/Indifferent: (0.78) | Mag2-01: E. coli ... || page 3: For Tables S3-S10: FIC Index = [A]/[MICA] + [B]/[MICB], where [A] and [B] are the concentrations of respective peptides at which no growth was observed when dosed in combination, and [MICA] and [MICB] are the concentrations where no growth was observed when dosed separately. The data from each experiment repeated in duplicate or triplicate is shown and bolded data in the final row is the average FIC value. Error is reported as the standard deviation of the mean. Table S3. FIC values for Interactions of CP10A and TempL in E. coli 25922. * Previously reported data from reference for ... || page 4: Table S4. FIC values for the non-ATCUN containing parental peptides in E. coli 25922. A CP10A CP10A CP10A TempL TempL TempL TempL B Sub5 13 Mag2 OV3-00 Sub5 TRP Mag2 OV3-00 [A] 2/4/4 2/2/1 2/2/0.5 2/2/2 1/1/1 0.25/1/2 2/2/2 MICA 16/16/16 4/4/2 4/4/4 4/4/4 2/4/2 4/4/4 16/16/16 [B] 1/0.5/0.25 2/2/2 0.5/1/1 4/4/4 4/4/4 4/2/0.125 4/1/1 MICB 4/2/4 4/4/4 2/2/2 8/8/8 8/8/8 8/8/8 8/2/2 FIC 0.375/0.328/0.5 1/1/1 0.75/1/0.625 1/1/1 1/0.75/1 0.56/0.5/0.52 0.625/0.625/0.625 FICAvg 0.40 ± 0.04 1 0.78 ± 0.2 1 0.9 ± 0.14 0.53 ± 0.03 0.625 Table S5. FIC Values for ATCUN peptide derivatives in MRSA 433 ...

MRSA 43300 [5] = system: MRSA 43300; design: method as in ref [13] of the supplement ([11] in main text); conditions: single peptide on the FIC plate, cited from earlier work
E. coli 25922 [6] = assay: FIC of peptide pairs (two-way dilution, 96-well plate); format: cell-based, Escherichia coli; conditions: single peptide on the FIC plate
Description: (§2) Determining MIC values informed decisions on testing peptides in combination. Fractional inhibitory concentrations determine the ability of test articles to act in concert against a pathogen. FIC determination is experimentally similar to MIC determination, except one test article is diluted down the wells and another is diluted across the wells of the 96-well plate in order to test the synergism of two peptides. […] Synergy is defined as an FIC of less than or equal to 0.5, meaning there is a four-fold reduction in the concentration of each peptide required for inhibition. Any number above 4 indicates a deleterious interaction that reduces the effectiveness of each peptide, and a value between 0.5 and 1 can be considered additive (Equation (2)).
(§3) Fractional inhibitory concentrations (FICs) were determined in a manner similar to MIC determinations but with serial dilutions of two peptides running both horizontally and vertically across the 96-well plate. Determination of the FIC can be seen in Equation (2), where FIC is the fractional inhibitory concentration, [A] is the concentration of substrate A at MIC in combination, [B] is the concentration of substrate B at MIC in combination, and MICA and MICB are the MIC of substrate A and substrate B, respectively. FIC = fractional inhibitory concentration, [A] = concentration of A at MIC in combination, [B] = concentration of B at MIC in combination, MICA = minimum inhibitory concentration of A, and MICB = minimum inhibitory concentration of B. When FIC ≤ 0.5 the results are synergistic. If FIC > 4, the results are antagonistic, and when FIC > 0.5, the results are indifferent or additive. (2) FIC=[A]/MICA+ [B]/MICB

MRSA 43300 [7] = assay: as above; format: cell-based, S. aureus; conditions: single peptide on the FIC plate
Description: as §2, §3

A. baumannii BAA747 [8] = system: A. baumannii BAA747; design: method as in ref 13 of the supplement ([11] in main text); conditions: Acinetobacter baumannii, single peptide on the FIC plate, ref 13 of the supplement ([11] in main text), cited from earlier work
[9] = previously reported data, ref [8]
[10] = P. aeruginosa (27583), previously reported data, ref [8]
[11] = replicate 1, ref [13] of the supplement ([11] in main text)
[12] = replicate 2, ref [13] of the supplement ([11] in main text)
[13] = replicate 3, ref [13] of the supplement ([11] in main text)
[14] = taken from earlier work, ref [7]
[15] = P. aeruginosa 27583, taken from earlier work, ref [7]

Substance	% Helical (SDS) ([1]; ref [8])	MIC (A. baumannii BAA747 [2]; [9]) [µM]	MIC (E. coli 25922 [3]; [9]) [µM]	MIC (P. aeruginosa 27583; [10]) [µM]	MIC (K. pneumoniae 700603; [9]) [µM]	MIC (E. faecium 700221 (VRE); [9]) [µM]	MIC (S. aureus 43300 (MRSA); [9]) [µM]	MICA/MICB, concentration with no growth when dosed separately (E. coli 25922 [4]; [11]) [µM]	MICA/MICB, concentration with no growth when dosed separately (E. coli 25922 [4]; [12]) [µM]	MICA/MICB, concentration with no growth when dosed separately (E. coli 25922 [4]; [13]) [µM]	MICA/MICB, concentration with no growth when dosed separately (MRSA 43300 [5]; [11]) [µM]	MICA/MICB, concentration with no growth when dosed separately (MRSA 43300 [5]; [12]) [µM]	MICA/MICB, concentration with no growth when dosed separately (MRSA 43300 [5]; [13]) [µM]	MICA/MICB, concentration with no growth when dosed separately (E. coli 25922 [6]; replicate 1) [µM]	MICA/MICB, concentration with no growth when dosed separately (E. coli 25922 [6]; replicate 2) [µM]	MICA/MICB, concentration with no growth when dosed separately (E. coli 25922 [6]; replicate 3) [µM]	MICA/MICB, concentration with no growth when dosed separately (MRSA 43300 [7]; replicate 1) [µM]	MICA/MICB, concentration with no growth when dosed separately (MRSA 43300 [7]; replicate 2) [µM]	MICA/MICB, concentration with no growth when dosed separately (MRSA 43300 [7]; replicate 3) [µM]	MIC (A. baumannii BAA747 [2]; [14]) [µM]	other results
GGHGIRRIIRKIIHIIKKGGC-NH2 [Cu-2, ATCUN-OV3 derivative from the authors' earlier work]	56% [8]	9.3	3	12	>16	8	4	–	–	–	–	–	–	–	–	–	–	–	–	–	–
GGHGIRRIIRKIIHIKK-NH2 [Cu-1, ATCUN-OV3 derivative from the authors' earlier work]	14% [8]	2.7	>16	>16	16	16	16	–	–	–	–	–	–	–	–	–	–	–	–	–	–
GGHIRRIIRKIIHIIKK-NH2 [Cu-3, ATCUN-OV3 derivative from the authors' earlier work]	35% [8]	5.3	>16	>16	16	8	16	–	–	–	–	–	–	–	–	–	–	–	–	–	–
GGHRRWKIVVIRWRR-NH2 [Sub5-01, ATCUN derivative of Sub5, previously characterized by the authors]	–	–	–	–	–	–	–	4	4	4	16	16	16	8	8	8	4	4	4	1	MIC (E. coli 25922 [3]; [14]): 2.7 µM; MIC (P. aeruginosa 27583; [15]): 2 µM; MIC (K. pneumoniae 700603; [14]): 2 µM; MIC (E. faecium 700221 (VRE); [14]): 0.4 µM; MIC (S. aureus 43300 (MRSA); [14]): 1 µM; MICA/MICB, concentration with no growth when dosed separately (A. baumannii BAA747 [8]; replicate 1): 1 µM; MICA/MICB, concentration with no growth when dosed separately (A. baumannii BAA747 [8]; replicate 2): 2 µM; MICA/MICB, concentration with no growth when dosed separately (A. baumannii BAA747 [8]; replicate 3): 1 µM
KNLRRIIRKIIHIIKKYGPTILRIIRIIG [OV, SMAP-29 derivative]	–	–	–	–	–	–	–	–	–	–	–	–	–	–	–	–	–	–	–	–	% Helical (SDS) ([1]; ref [17]): 86% [17]
RRWKIVVIRWRR-NH2 [Sub5, bactenecin derivative]	–	–	–	–	–	–	–	4	2	4	1	2	2	8	8	8	4	4	4	0.8	MIC (E. coli 25922 [3]; [14]): 3.3 µM; MIC (P. aeruginosa 27583; [15]): 4 µM; MIC (K. pneumoniae 700603; [14]): 1.7 µM; MIC (E. faecium 700221 (VRE); [14]): 0.5 µM; MIC (S. aureus 43300 (MRSA); [14]): 2 µM; MICA/MICB, concentration with no growth when dosed separately (A. baumannii BAA747 [8]; replicate 1): 2 µM; MICA/MICB, concentration with no growth when dosed separately (A. baumannii BAA747 [8]; replicate 2): 2 µM; MICA/MICB, concentration with no growth when dosed separately (A. baumannii BAA747 [8]; replicate 3): 2 µM
